Laboratory results taken from patent US20240366618A1, “CGRP Antagonists for Treating Trigeminal Neuralgia” (Pfizer Ireland Pharmaceuticals, priority 2021, published 2024).
“Also recorded” adds a separate entry of the source.

What was measured:
[1] = system: classic trigeminal neuralgia; settings: patients with classic trigeminal neuralgia; cited from earlier work
[2] = system: refractory atypical trigeminal neuralgia; assay: Case study: oral rimegepant in one patient with refractory atypical trigeminal neuralgia; assay type: in vivo, human; parameters: key to Barrow Neurological Institute (BNI) pain intensity score: II: defined as no pain on medication; settings: for adverse effects / tolerability / treatment efficacy in words: treatment period of six months
From the text: In this study, refractory atypical trigeminal neuralgia was successfully treated using rimegepant, a novel oral calcitonin gene-related peptide (CGRP) antagonist. The patient experienced a decrease in pain from seven to nine out of 10 to 0 out of 10 within one day of therapy initiation. […] Thus, this case illustrates the promise of CGRP antagonist therapy as a novel treatment for trigeminal neuralgia, including atypical trigeminal neuralgia.
A person with a 5-year history of TN presented with episodic sharp, stabbing and constant burning pain along the V2 nerve distribution. Their pain was triggered by sensation on their upper right teeth, including wind, mastication, and extreme-temperature fluids. Their self-reported pain score ranged from seven to nine out of 10, and their Barrow Neurological Institute (BNI) pain intensity score was rated IV out of V, defined as inadequate pain control with medication. At presentation, their pain regimen consisted of 300 mg oxcarbazepine per day, up to eight 15 mg tablets of oxycodone per day, and 10 mcg per hour transdermal buprenorphine patch. On neurological exam, sensation was intact to light touch bilaterally except along the right nasolabial fold, and grimace was symmetric. The patient experienced impairment in ability to perform daily activities, such as eating, working, and speaking. Other associated symptoms included headache, fatigue, and significant weight loss.
Prior to presentation, the patient unsuccessfully tried several medications for pain control, including oxcarbazepine, meperidine, carisoprodol, propranolol, pregabalin, sumatriptan, and ergot. They also failed medical cannabinoids, oxygen therapy, trigger point injections, and sphenopalatine nerve blockades. They underwent four surgical procedures at outside institutions, including Gamma Knife radiosurgery (37 months prior to presentation), right balloon rhizotomy (31 months prior to presentation), radiofrequency ablation (22 months prior to presentation), and a V2-3 radiofrequency rhizotomy (14 months prior to presentation).
Given their sharp/stabbing pain, we offered them a microvascular decompression (MVD).
After multiple trials of different medications for six years after their MVD, the patient was started on 75 mg of rimegepant per day. Within 12 hours of their first dose, their self-reported pain score improved to 0 out of 10. […] They rarely had mild (2 out of 10) pain, which was controlled with 1 mg buprenorphine. Their BNI pain intensity score was reduced to II, defined as no pain on medication.

migraine [3] = assay: Three double-blind, placebo-controlled BHV-3000 migraine studies; assay type: in vivo, human; settings: 75 mg dose
[4] = Ongoing long-term safety study of rimegepant; assay type: in vivo, human; settings: 75 mg dose; preliminary data
migraine [5] = settings: cited from earlier work
trigeminal neuralgia = settings: cited from earlier work
[6] = 75 mg per day, listed as Rimegepant
[7] = acute migraine treatment trial, fast-dissolve orally disintegrating tablet (ODT) formulation

## NC(=O)N1c2ccccc2C=Cc2ccccc21 [carbamazepine]
[1]
  response rates with initial therapy: approximately 70%

## NC(=O)N1c2ccccc2CC(=O)c2ccccc21 [oxcarbazepine]
[1]
  response rates with initial therapy: approximately 70%

## N[C@@H]1c2cccnc2[C@H](OC(=O)N2CCC(n3c(=O)[nH]c4ncccc43)CC2)CC[C@H]1c1cccc(F)c1F [rimegepant, (5S,6S,9R)-5-amino-6-(2,3-difluorophenyl)-6,7,8,9-tetrahydro-5H-cyclohepta[b]pyridine-9-yl-4-(2-oxo-2,3-dihydro-1H-imidazo[4,5-b]pyridine-1-yl)piperidine-1-carboxylate]
[2]; 75 mg of rimegepant per day
  time after first dose until self-reported pain score improved to 0 out of 10: ≤ 12 h
[2]; 75 mg of rimegepant per day, within 12 hours of first dose, before treatment seven to nine out of 10
  self-reported pain score: 0 out of 10
[2]; on 75 mg rimegepant per day, before treatment IV out of V
  Barrow Neurological Institute (BNI) pain intensity score: II
[2]; oral rimegepant
  time after therapy initiation until pain decreased to 0 out of 10: one
[2]; patient-reported, six-month treatment period
  mood and cognition: drastic improvement in mood and cognition
[2]; six-month treatment period, 75 mg per day, controlled with 1 mg buprenorphine
  rare mild pain during treatment: 2 out of 10
[2]; 75 mg per day
  adverse effects / tolerability: no significant adverse effects
  treatment efficacy in words: continues to be efficacious; also recorded: mostly had no pain
[2]; [6]
  adverse effects / tolerability: well tolerated
  treatment efficacy in words: maintains efficacy over a period of six months
[2]; 75 mg per day, listed as rigemepant
  adverse effects / tolerability: lack of adverse effects
[2]; within one day of therapy initiation, before treatment seven to nine out of 10
  pain: 0 out of 10
Migraine [3]
  efficacy for the treatment of migraine in words: effective
[4]
  tolerability in words: well tolerated
Migraine [5]; [7]
  time postdose at which statistically significant benefit for pain relief was demonstrated: 60 min
  time postdose at which statistically significant benefit on achieving pain freedom was demonstrated: 90 min
Migraine [5]; migraine trials
  safety profile in words: favorable safety profile
Migraine [5]; orally administered, preventive and acute treatment
  efficacy in migraine in words: proven efficacy in the preventive and acute treatment of migraine

B1: erenumab: an injected anti-CGRP monoclonal antibody (antibody, chains of the INN, looked up, V domains shown)
VH: QVQLVESGGGVVQPGRSLRLSCAASGFTFSSFGMHWVRQAPGKGLEWVAVISFDGSIKYSVDSVKGRFTISRDNSKNTLFLQMNSLRAEDTAVYYCARDRLNYYDSSGYYHYKYYGMAVWGQGTTVTVSS
VL: QSVLTQPPSVSAAPGQKVTISCSGSSSNIGNNYVSWYQQLPGTAPKLLIYDNNKRPSGIPDRFSGSKSGTSTTLGITGLQTGDEADYYCGTWDSRLSAVVFGGGTKLTVL
Trigeminal neuralgia; in vivo
  patients reporting constipation and/or injection site reaction: three
  side effects in words: minimal
Trigeminal neuralgia; injected erenumab
  patients with significant decrease in trigeminal neuralgia pain: nine
Trigeminal neuralgia; of 10 patients treated with erenumab
  patients reporting complete pain resolution: five
